Tests used:
[1] = molecular target: T1, C. kluyveri Hbd1 (Clostridium kluyveri, UniProt A5N5D1); assay: NAD(P)H oxidation at […] nm, E. coli cell-free extract; assay type: biochemical; conditions: 75 uM NADPH, 125 uM acetoacetyl-CoA; 100 mM potassium phosphate pH 6.5, 25 mM potassium citrate
T1 construct: full-length gene expressed in E. coli, cell-free extract (bead-beating), not purified
T1 sequence (A5N5D1 1-282): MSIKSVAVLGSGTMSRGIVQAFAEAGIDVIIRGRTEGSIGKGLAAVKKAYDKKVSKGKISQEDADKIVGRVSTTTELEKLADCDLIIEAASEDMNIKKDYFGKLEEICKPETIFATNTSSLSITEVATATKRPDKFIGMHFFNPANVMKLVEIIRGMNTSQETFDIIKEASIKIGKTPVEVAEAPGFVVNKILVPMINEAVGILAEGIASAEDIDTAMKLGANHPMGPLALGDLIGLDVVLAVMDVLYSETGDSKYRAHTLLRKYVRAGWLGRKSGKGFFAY

[2] = molecular target: T2, C. ljungdahlii Hbd2 (Clostridium ljungdahlii, UniProt D8GTU3); assay: as above; assay type: biochemical; conditions: 75 uM NADH, 125 uM acetoacetyl-CoA; 100 mM potassium phosphate pH 6.5, 25 mM potassium citrate; vector-extract activity subtracted
T2 construct: gene mmgB_1; full-length gene expressed in E. coli, cell-free extract (bead-beating), not purified; EC 1.1.1.57 printed
T2 sequence (D8GTU3 1-313): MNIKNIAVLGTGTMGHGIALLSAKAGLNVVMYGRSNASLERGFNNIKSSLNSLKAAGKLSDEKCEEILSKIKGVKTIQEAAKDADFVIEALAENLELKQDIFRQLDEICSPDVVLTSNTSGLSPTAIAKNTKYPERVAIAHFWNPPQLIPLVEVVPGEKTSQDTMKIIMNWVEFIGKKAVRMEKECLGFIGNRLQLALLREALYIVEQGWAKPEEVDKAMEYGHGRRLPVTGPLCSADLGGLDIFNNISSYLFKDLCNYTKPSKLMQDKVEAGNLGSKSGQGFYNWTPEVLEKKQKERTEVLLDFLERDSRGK

Structure (SMILES): NC(=O)C1=CN([C@@H]2O[C@H](COP(=O)(O)OP(=O)(O)OC[C@H]3O[C@@H](n4cnc5c(N)ncnc54)[C@H](OP(=O)(O)O)[C@@H]3O)[C@@H](O)[C@H]2O)C=CC1 [NADPH]
- NAD(P)H oxidation at 340 nm, E. coli cell-free extract [1]: C. kluyveri hbd1 E. coli extracts were used as an NADPH-specific control

Structure (SMILES): CC(=O)CC(=O)SCCNC(=O)CCNC(=O)[C@H](O)C(C)(C)COP(=O)(O)OP(=O)(O)OC[C@H]1O[C@@H](n2cnc3c(N)ncnc32)[C@H](O)[C@@H]1OP(=O)(O)O [acetoacetyl-CoA]
- NAD(P)H oxidation at 340 nm, E. coli cell-free extract [1]: Both hbd1 and hbd2 E. coli cell free extracts showed low activity without acetoacetyl-CoA
- NAD(P)H oxidation at 340 nm, E. coli cell-free extract [2]: we confirmed NADH specificity and acetoacetyl-CoA-dependence

Structure (SMILES): NC(=O)C1=CN([C@@H]2O[C@H](COP(=O)(O)OP(=O)(O)OC[C@H]3O[C@@H](n4cnc5c(N)ncnc54)[C@H](O)[C@@H]3O)[C@@H](O)[C@H]2O)C=CC1 [NADH]
- NAD(P)H oxidation at 340 nm, E. coli cell-free extract [2]: we confirmed NADH specificity and acetoacetyl-CoA-dependence

From paper PMC9393629, “Acetogenic production of 3-Hydroxybutyrate using a native 3-Hydroxybutyryl-CoA Dehydrogenase” (Frontiers in Microbiology, 2022)
